Key:
Format in all cases: functional
[1] = system: UO-31; test: Antiproliferative activity against human UO31 cells assessed as cell growth at 10^-5 M after 48 hrs by SRB assay relative to control; details: UO-31, 48 h, read-out: Activity
[2] = system: PC-3; test: Anticancer activity against human PC3 cells after 48 hrs by SRB assay; details: PC-3, 48 h; for CC50: read-out: LC50 (the source's name)
[3] = system: RXF 393; test: Anticancer activity against human RXF393 cells after 48 hrs by SRB assay; details: RXF 393, 48 h; for CC50: read-out: LC50 (the source's name)
[4] = system: MDA-MB-468; test: Anticancer activity against human MDA-MB-468 cells after 48 hrs by SRB assay; details: MDA-MB-468, 48 h; for CC50: read-out: LC50 (the source's name)
[5] = system: HL-60(TB); test: Anticancer activity against human HL-60(TB) cells after 48 hrs by SRB assay; details: HL-60, 48 h
[6] = system: CAKI-1; test: Anticancer activity against human Caki1 cells after 48 hrs by SRB assay; details: CAKI-1, 48 h; for CC50: read-out: LC50 (the source's name)
[7] = system: Malme-3M; test: Anticancer activity against human MALME-3M cells after 48 hrs by SRB assay; details: for CC50: read-out: LC50 (the source's name)
[8] = system: SK-MEL-2; test: Anticancer activity against human SK-MEL-2 cells after 48 hrs by SRB assay; details: SK-MEL-2, 48 h
[9] = system: OVCAR-8; test: Anticancer activity against human OVCAR8 cells after 48 hrs by SRB assay; details: OVCAR-8, 48 h; for CC50: read-out: LC50 (the source's name)
[10] = system: NCI-H460; test: Anticancer activity against human NCI-H460 cells after 48 hrs by SRB assay; details: NCI-H460, 48 h; for CC50: read-out: LC50 (the source's name)
[11] = system: IGROV-1; test: Anticancer activity against human IGROV1 cells after 48 hrs by SRB assay; details: IGROV-1, 48 h
[12] = system: UACC-257; test: Anticancer activity against human UACC257 cells after 48 hrs by SRB assay; details: UACC-257, 48 h
[13] = system: SF-268; test: Anticancer activity against human SF268 cells after 48 hrs by SRB assay; details: SF-268, 48 h; for CC50: read-out: LC50 (the source's name)
[14] = system: HOP-92; test: Anticancer activity against human HOP92 cells after 48 hrs by SRB assay; details: HOP-92, 48 h
[15] = system: HT-29; test: Anticancer activity against human HT-29 cells after 48 hrs by SRB assay; details: HT-29, 48 h
[16] = system: MDA-MB-435; test: Anticancer activity against human MDA-MB-435 cells after 48 hrs by SRB assay; details: MDA-MB-435, 48 h
[17] = system: ACHN; test: Anticancer activity against human ACHN cells after 48 hrs by SRB assay; details: for CC50: read-out: LC50 (the source's name)
[18] = system: LOX IMVI; test: Anticancer activity against human LOXIMVI cells after 48 hrs by SRB assay; details: for CC50: read-out: LC50 (the source's name)
[19] = system: A498; test: Anticancer activity against human A498 cells after 48 hrs by SRB assay; details: A498, 48 h; for CC50: read-out: LC50 (the source's name)
[20] = system: UACC-62; test: Anticancer activity against human UACC62 cells after 48 hrs by SRB assay; details: UACC-62, 48 h
[21] = system: NCI-H23; test: Anticancer activity against human NCI-H23 cells after 48 hrs by SRB assay; details: NCI-H23, 48 h
[22] = system: MOLT-4; test: Anticancer activity against human MOLT4 cells after 48 hrs by SRB assay; details: MOLT-4, 48 h
[23] = system: SK-MEL-5; test: Anticancer activity against human SK-MEL-5 cells after 48 hrs by SRB assay; details: SK-MEL-5, 48 h
[24] = system: MCF7; test: Anticancer activity against human MCF7 cells after 48 hrs by SRB assay; details: MCF7, 48 h; for CC50: read-out: LC50 (the source's name)
[25] = system: SR; test: Anticancer activity against human SR cells after 48 hrs by SRB assay
[26] = system: BT-549; test: Anticancer activity against human BT549 cells after 48 hrs by SRB assay; details: BT-549, 48 h; for CC50: read-out: LC50 (the source's name)
[27] = system: DU-145; test: Anticancer activity against human DU145 cells after 48 hrs by SRB assay; details: DU-145, 48 h; for CC50: read-out: LC50 (the source's name)
[28] = system: SK-MEL-28; test: Anticancer activity against human SK-MEL-28 cells after 48 hrs by SRB assay; details: SK-MEL-28, 48 h
[29] = system: T47D; test: Anticancer activity against human T47D cells after 48 hrs by SRB assay; details: for CC50: read-out: LC50 (the source's name)
[30] = system: HCT-15; test: Anticancer activity against human HCT15 cells after 48 hrs by SRB assay; details: HCT-15, 48 h
[31] = system: OVCAR-5; test: Anticancer activity against human OVCAR5 cells after 48 hrs by SRB assay; details: OVCAR-5, 48 h
[32] = system: K562; test: Anticancer activity against human K562 cells after 48 hrs by SRB assay; details: K562, 48 h
[33] = system: SF-539; test: Anticancer activity against human SF539 cells after 48 hrs by SRB assay; details: SF-539, 48 h
[34] = system: SF-295; test: Anticancer activity against human SF295 cells after 48 hrs by SRB assay; details: SF-295, 48 h
[35] = system: SN12C; test: Anticancer activity against human SN12C cells after 48 hrs by SRB assay; details: for CC50: read-out: LC50 (the source's name)

## COc1ccc(C2CC(c3c(O)cc(C)c(Cl)c3C)=NN2c2ccc(S(N)(=O)=O)cc2)cc1 (configuration not stated)
[1]
  growth at 10 µM: 93.3%

## Cc1cc(O)c(C2=NN(c3ccc(S(N)(=O)=O)cc3)C(c3ccc(Cl)cc3)C2)c(C)c1Cl (configuration not stated)
[2]
  GI50: 9.21 µM
  TGI: 23.9 µM
  CC50: 58.9 µM
[3]
  GI50: 24.5 µM
  TGI: 59.1 µM
  CC50: 100 µM
[4]
  GI50: 17.1 µM
  TGI: 33.8 µM
  CC50: 66.7 µM
[5]
  GI50: 20.3 µM
  TGI: 50 µM
[6]
  GI50: 23.3 µM
  TGI: 100 µM
  CC50: 100 µM
[7]
  GI50: 14.8 µM
  TGI: 32.7 µM
  CC50: 72.1 µM
[8]
  GI50: 21.4 µM
  TGI: 43.6 µM
[9]
  GI50: 27.3 µM
  TGI: 100 µM
  CC50: 100 µM
[10]
  GI50: 12.2 µM
  TGI: 27.4 µM
  CC50: 61.4 µM
[11]
  GI50: 18.3 µM
  TGI: 59 µM
[12]
  GI50: 26.3 µM
  TGI: 63.1 µM
[13]
  GI50: 18.7 µM
  TGI: 37.2 µM
  CC50: 73.9 µM
[14]
  GI50: 10.3 µM
  TGI: 23.6 µM
[15]
  GI50: 10.9 µM
  TGI: 25.8 µM
[16]
  GI50: 13.4 µM
  TGI: 31 µM
[17]
  GI50: 14.9 µM
  TGI: 30.6 µM
  CC50: 62.9 µM
[18]
  GI50: 14.8 µM
  TGI: 32 µM
  CC50: 69.2 µM
[19]
  GI50: 26.7 µM
  TGI: 43.9 µM
  CC50: 72.2 µM
[20]
  GI50: 9.92 µM
  TGI: 25.8 µM
[21]
  GI50: 17.7 µM
  TGI: 43.7 µM
[22]
  GI50: 12.7 µM
  TGI: 43.2 µM
[23]
  GI50: 14.5 µM
  TGI: 27.8 µM
[24]
  GI50: 6.55 µM
  TGI: 24.2 µM
  CC50: 71.1 µM
[25]
  GI50: 14.1 µM
  TGI: 37.5 µM
[26]
  GI50: 15.4 µM
  TGI: 43.3 µM
  CC50: 100 µM
[27]
  GI50: 19.2 µM
  TGI: 38.4 µM
  CC50: 77 µM
[28]
  GI50: 19.4 µM
  TGI: 35.6 µM
[29]
  GI50: 5.72 µM
  TGI: 19.7 µM
  CC50: 51.4 µM
[30]
  GI50: 14.2 µM
  TGI: 32 µM
[31]
  GI50: 19.4 µM
  TGI: 38.1 µM
[32]
  GI50: 14 µM
  TGI: 44.8 µM
[33]
  GI50: 15.7 µM
  TGI: 29.3 µM
[34]
  GI50: 19.2 µM
  TGI: 44.4 µM
[35]
  GI50: 9.62 µM
  TGI: 24.9 µM
  CC50: 63 µM

## Cc1cc(O)c(C2=NN(c3ccc(S(N)(=O)=O)cc3)C(c3ccc(N(C)C)cc3)C2)c(C)c1Cl (configuration not stated)
[2]
  GI50: 4.44 µM
  TGI: 16.8 µM
  CC50: 41 µM
[3]
  GI50: 5.83 µM
  TGI: 21.2 µM
  CC50: 58.9 µM
[4]
  GI50: 10.7 µM
  TGI: 24.6 µM
  CC50: 56.8 µM
[5]
  GI50: 7.84 µM
  TGI: 20.8 µM
[6]
  GI50: 4.38 µM
  TGI: 18.2 µM
  CC50: 45 µM
[7]
  GI50: 14.8 µM
  TGI: 35.2 µM
  CC50: 83.4 µM
[8]
  GI50: 11.9 µM
  LC50: 64 µM
  TGI: 27.6 µM
[9]
  GI50: 5.75 µM
  TGI: 21.6 µM
  CC50: 66.4 µM
[10]
  GI50: 2.53 µM
  TGI: 7.24 µM
  CC50: 29.8 µM
[11]
  GI50: 6.19 µM
  LC50: 60.2 µM
  TGI: 22.3 µM
[12]
  GI50: 11.9 µM
  LC50: 60.2 µM
  TGI: 26.8 µM
[13]
  GI50: 5.76 µM
  TGI: 19.4 µM
  CC50: 48.9 µM
[14]
  GI50: 3.74 µM
  LC50: 41.9 µM
  TGI: 17.6 µM
[15]
  GI50: 3.3 µM
  LC50: 37.6 µM
  TGI: 11 µM
[16]
  GI50: 3.57 µM
  LC50 (concentration killing 50% of cells): 41.5 µM
  TGI: 14.8 µM
[17]
  GI50: 3.7 µM
  TGI: 14.4 µM
  CC50: 39.5 µM
[18]
  GI50: 2.34 µM
  TGI: 6.98 µM
  CC50: 32.7 µM
[19]
  GI50: 6.97 µM
  TGI: 19.3 µM
  CC50: 44.2 µM
[20]
  GI50: 3.49 µM
  LC50 (lethal concentration 50%): 38.8 µM
  TGI: 15.1 µM
[21]
  GI50: 5.82 µM
  LC50 (concentration killing 50% of cells): 47.3 µM
  TGI: 19.9 µM
[22]
  GI50: 1.94 µM
  LC50: 34.9 µM
  TGI: 7.26 µM
[23]
  GI50: 9.59 µM
  LC50 (concentration killing 50% of cells): 46.2 µM
  TGI: 21.4 µM
[24]
  GI50: 2.01 µM
  TGI: 10.5 µM
  CC50: 37.1 µM
[25]
  GI50: 1.28 µM
  LC50 (concentration killing 50% of cells): 45.9 µM
  TGI: 17.8 µM
[26]
  GI50: 1.31 µM
  TGI: 27.7 µM
  CC50: 58.9 µM
[1]
  growth at 10 µM: 66.6%
[27]
  GI50: 5.6 µM
  TGI: 17.6 µM
  CC50: 42.3 µM
[28]
  GI50: 11.7 µM
  LC50: 48.9 µM
  TGI: 23.9 µM
[29]
  GI50: 2.93 µM
  TGI: 14.9 µM
  CC50: 49.8 µM
[30]
  GI50: 5.48 µM
  LC50 (concentration killing 50% of cells): 57 µM
  TGI: 20.8 µM
[31]
  GI50: 12.3 µM
  LC50: 49.7 µM
  TGI: 24.7 µM
[32]
  GI50: 2.24 µM
  LC50: 33.9 µM
  TGI: 11.5 µM
[33]
  GI50: 12.3 µM
  LC50: 49.7 µM
  TGI: 24.7 µM
[34]
  GI50: 16 µM
  LC50: 62.4 µM
  TGI: 31.6 µM
[35]
  GI50: 5.71 µM
  TGI: 19.2 µM
  CC50: 43.9 µM
